The record followed here is patent publication US5196094A, “Separation of 1,1,1-trichloroethane from the lower alcohols by extractive distillation” (priority 1991, dated 1993).

Common to all, as to assay type: physicochemical
Data set [1] in a line: Vapor-liquid equilibrium still, separation of 1,1,1-trichloroethane from methanol.
A short description of data set [2]: Vapor-liquid equilibrium still, separation of 1,1,1-trichloroethane from 2-butanol.
Data set [3] is described as follows: Vapor-liquid equilibrium still, separation of 1,1,1-trichloroethane from ethanol.
Data set [4] in a line: Vapor-liquid equilibrium still, separation of 1,1,1-trichloroethane from n-propanol.
Setting [5] is: 1,1,1-trichloroethane from methanol, vapor-liquid equilibrium still.
The mark [6] stands for this setting: * Brings out Ethanol as Overhead.
Setting [7] is: 1,1,1-trichloroethane from 2-butanol, vapor-liquid equilibrium still.
Where [8] appears, read: 1,1,1-trichloroethane from ethanol.
Where [9] appears, read: 1,1,1-trichloroethane from n-propanol, vapor-liquid equilibrium still.

Where a name gives a salt, the structure may show the parent alone.

Take 1-Methoxy-2-acetoxy propanol: the “Relative Volatility” value in data set [1] (setting [5]) is reported as 2.3.

Take `CC(=O)O[C@@H]1C[C@H]2CC[C@]1(C)C2(C)C` (racemic) [Isobornyl acetate]: the figures for the “Relative Volatility” value in data set [1], in data set [2] and in data set [3] (setting [6]) were 2.5, 1.7 and 1.6, respectively. Regarding `COCC(C)OC(C)=O` (stereo not drawn) [1-Methoxy-2-acetoxy propane], the “Relative Volatility” value in data set [2] (setting [7]) worked out at 2.0. With `COCC(C)O` (stereo not drawn) [1-Methoxy-2-propanol], the “Relative Volatility” value in data set [3] (setting [8]) stood at 2.9. In the case of `CN1CCCC1=O` [1-Methyl-2-pyrrolidinone], the “Relative Volatility” value in data set [1] was 2.7; in data set [2] (setting [7]) it was 3.6; in data set [3] (setting [8]), 2.5. Regarding `CCC[N+](=O)[O-]` [1-Nitropropane], the results for the “Relative Volatility” value in data set [4], in data set [1] (setting [5]) and in data set [2] were 1.3, 2.1 and 1.6, respectively. In the case of `CC(=O)CC(C)=O` [2,4-Pentanedione], the “Relative Volatility” value in data set [4] stood at 1.6; in data set [1], 2.7; in data set [2], 1.8. `CC(C)CC(=O)CC(C)C` [2,6-Dimethyl-4-heptanone]: the “Relative Volatility” value in data set [3] (setting [8]) is given as 1.65.

For `CCC(CC)CO` [2-Ethyl butanol], the “Relative Volatility” value is listed as 1.4 in data set [1] and 3.3 in data set [2] (setting [7]).

`CCCCCC(C)=O` [2-Heptanone]: the “Relative Volatility” value is given as 3.2 in data set [1] (setting [5]), 1.4 in data set [2] and 1.3 in data set [3] (setting [8]).

On to `CC(C)[N+](=O)[O-]` [2-Nitropropane], for which the figures for the “Relative Volatility” value in data set [4], in data set [1] (setting [5]) and in data set [2] were 1.4, 2.0 and 1.6, respectively.

Turning to `CCCCCCC(C)O` (stereo not drawn) [2-Octanol], the “Relative Volatility” value in data set [1] (setting [5]) turned out to be 2.8; in data set [2] (setting [7]) it was 2.6.

For the molecule `CCCCCCC(C)=O` [2-Octanone], in data set [4], the “Relative Volatility” value turned out to be 1.25. For the molecule `CCCCCCCCCC(C)=O` [2-Undecanone], the “Relative Volatility” value in data set [3] (setting [8]) turned out to be 1.4.

As to `CC(=O)C(C)(C)C` [3,3-Dimethyl-2-butanone], the entries for the “Relative Volatility” value in data set [4] and in data set [3] (setting [8]) were 1.4 and 1.65, respectively.

In the case of `CCCCC(=O)CC` [3-Heptanone], the “Relative Volatility” value in data set [4] is reported as 1.25. Take `CC(C)CCO` [3-Methyl-1-butanol]: the “Relative Volatility” value in data set [3] (setting [8]) is given as 2.9. Regarding `CC(=O)OC(C)CC(C)C` (stereo not drawn) [4-Methyl pentyl acetate-2], the entries for the “Relative Volatility” value in data set [1] (setting [5]), in data set [2] (setting [7]) and in data set [3] (setting [6]) were 2.9, 1.7 and 1.45, respectively. Turning to `CC(C)CC(C)O` (stereo not drawn) [4-Methyl-2-pentanol], the entries for the “Relative Volatility” value in data set [1] (setting [5]), in data set [2] (setting [7]) and in data set [3] (setting [8]) were 4.2, 3.2 and 2.1, respectively. In the case of `CC(=O)CC(C)C` [4-Methyl-2-pentanone], the figures for the “Relative Volatility” value in data set [4] and in data set [3] (setting [8]) were 1.4 and 1.6, respectively.

Consider `CC(=O)CCC(C)C` [5-Methyl-2-hexanone], for which, in data set [4] (setting [9]), the “Relative Volatility” value was 1.3. For the molecule `CC(=O)c1ccccc1` [Acetophenone], the “Relative Volatility” value in data set [4] came to 1.7; in data set [1] (setting [5]), 2.3; in data set [2] it was 3.0; in data set [3] (setting [8]) it was 1.35. With `COc1ccccc1` [Anisole], the “Relative Volatility” value in data set [3] (setting [6]) was 1.25.

As for `OCc1ccccc1` [Benzyl alcohol], the “Relative Volatility” value in data set [2] (setting [7]) came out at 3.5. On to `O=C(OCc1ccccc1)c1ccccc1` [Benzyl benzoate], for which the “Relative Volatility” value in data set [4] (setting [9]) is recorded as 1.6. As for `CC(=O)CC(C)(C)O` [Diacetone alcohol], the “Relative Volatility” value in data set [3] (setting [8]) is recorded as 2.7. As to `CCOCCOCCOC(C)=O` [Diethylene glycol ethyl ether acetate], the “Relative Volatility” value in data set [1] (setting [5]) came to 2.8; in data set [2] (setting [7]), 2.1.

With `CC(C)CC(O)CC(C)C` [Diisobutyl carbinol], in data set [2], the “Relative Volatility” value came out at 2.2.

Regarding `CC(C)CC(=O)CC(C)C` [Diisobutyl ketone], the “Relative Volatility” value is reported as 2.7 in data set [1], 1.5 in data set [2] and 1.7 in data set [3] (setting [8]). Consider `CCOCCC(=O)OCC` [Ethyl 3-ethoxy propionate], for which, in data set [3] (setting [8]), the “Relative Volatility” value is given as 1.6. In the case of `CCOC(=O)CC(C)=O` [Ethyl acetoacetate], the “Relative Volatility” value in data set [1] (setting [5]) is on record as 2.8; in data set [2], 1.8; in data set [3] (setting [8]) it was 1.7. As to `CCOC(=O)c1ccccc1` [Ethyl benzoate], the “Relative Volatility” value in data set [3] (setting [8]) is reported as 1.55. Regarding `CCOC(=O)Cc1ccccc1` [Ethyl phenyl acetate], in data set [3] (setting [6]), the “Relative Volatility” value is 1.5.

Turning to `CCOCCOC(C)=O` [Ethylene glycol ethyl ether acetate], the results for the “Relative Volatility” value in data set [1] and in data set [3] (setting [6]) were 2.5 and 1.5, respectively.

With `CCCCCCOCCO` [Ethylene glycol hexyl ether], the “Relative Volatility” value worked out at 3.1 in data set [1] and 2.9 in data set [2]. In the same order, the values of `CCCCCCCO` [Heptyl alcohol] are 3.6 and 3.1.

As for `CC(=O)OCCC(C)C` [Isoamyl acetate], the “Relative Volatility” value in data set [3] (setting [8]) was 1.25. As for `CC(C)CCCCCCCO` [Isodecyl alcohol], the “Relative Volatility” value worked out at 2.3 in data set [1] (setting [5]) and 2.4 in data set [2] (setting [7]). For `CC(C)CCCCCO` [Isooctyl alcohol], the “Relative Volatility” value is 2.5 in data set [1], 2.4 in data set [2] (setting [7]) and 2.1 in data set [3] (setting [8]). Consider `CC(=O)OC(C)C` [Isopropyl acetate], for which, in data set [3] (setting [8]), the “Relative Volatility” value worked out at 1.6. As for `COC(=O)c1ccccc1` [Methyl benzoate], the “Relative Volatility” value in data set [4] was determined as 1.25.

As to `CC(=O)CCC(C)C` [Methyl isoamyl ketone], the results for the “Relative Volatility” value in data set [1] (setting [5]), in data set [2] (setting [7]) and in data set [3] (setting [8]) were 2.3, 1.6 and 2.0, respectively. Take `CC(=O)CC(C)C` [Methyl isobutyl ketone]: the “Relative Volatility” value worked out at 1.5 in data set [4] and 1.85 in data set [3] (setting [8]). As for `O=[N+]([O-])c1ccccc1` [Nitrobenzene], the results for the “Relative Volatility” value in data set [4], in data set [1] and in data set [2] were 1.4, 2.5 and 1.6, respectively. `COCC(C)OC(C)=O` (stereo not drawn) [Propylene glycol methyl ether acetate]: the results for the “Relative Volatility” value in data set [1] (setting [5]) and in data set [2] were 2.3 and 1.8, respectively. As for `OCC1CCCO1` (stereo not drawn) [Tetrahydro furfuryl alcohol], the “Relative Volatility” value was 3.3 in data set [1] (setting [5]), 3.2 in data set [2] (setting [7]) and 2.3 in data set [3] (setting [8]). `CCCCCOC(C)=O` [n-Amyl acetate]: the “Relative Volatility” value in data set [3] (setting [6]) was determined as 1.85.

Regarding `CCCCOC(C)=O` [n-Butyl acetate], in data set [3] (setting [6]), the “Relative Volatility” value is 3.5. Regarding `CCCCCCCCCCO` [n-Decanol], the “Relative Volatility” value in data set [1] is given as 2.5; in data set [2] (setting [7]), 2.3. Consider `CCCCCCOC=O` [n-Hexyl formate], for which the “Relative Volatility” value in data set [1] came to 1.7; in data set [2], 1.5; in data set [3] (setting [8]) it was 1.4.

Regarding `CCCOC(C)=O` [n-Propyl acetate], in data set [3] (setting [8]), the “Relative Volatility” value turned out to be 1.85. In the case of Dipropylene glycol methyl ether, the figures for the “Relative Volatility” value in data set [1] (setting [5]) and in data set [3] (setting [8]) were 4.3 and 1.85, respectively. Consider Tripropylene glycol methyl ether, for which the “Relative Volatility” value in data set [1] (setting [5]) is 3.2.
